In patent publication US11530196B2, “Pyrimidine compound acting on EGFR and ERBB2” (CHINA RESOURCES PHARMACEUTICAL HOLDINGS COMPANY LIMITED, priority 2019, dated 2022):
Where “and” joins values, the source holds several entries; their conditions need not be identical. Equal values may be shown once.

Assays:
[1] = target: Ba/F3 EGFR-V769_D770insASV (Homo sapiens, UniProt P00533, DUP767-769, cells depend on it); assay: Anti-proliferation against Ba/F3 exon 20 insertion mutant cells (ASV); type: cell-based, mouse; conditions: CTG, 72 hours, read-out: Mutant cells IC50 (anti-proliferation)
Excerpt: (§1) RPMI1640 medium was purchased from Hyclone, FBS fetal bovine serum was purchased from GBICO, and trypsin-EDTA were both purchased from Giboco. DPBS was purchased from Corning, penicillin/streptomycin solution was purchased from Hyclone, and Cell-Titer Glo reagent was purchased from Promega (Cat. No. G7572). Ba/F3 EGFR-D770_N771insSVD, Ba/F3 EGFR-H773_V774insNPH, Ba/F3 EGFR-V769_D770insASV, BaF3 ERBB2 A775_G776 ins YVMA, the cell lines were constructed by Beijing Kang Yuan Bochuang Biotechnology Co., Ltd. Plate reading instrument: Envision (PerkinElmer).
Cells in logarithmic growth phase were harvested and cell counts were performed using a […]. Cell viability was detected by the Taipan Blue rejection assay. The cell concentration was adjusted; the cell suspension was added to a 96-well plate separately. Cells in 96-well plates were incubated overnight at 37° C., 5% CO2, and 95% humidity. […] The cell plate was placed at room temperature to stabilize the cold light signal, and the cold light values were read. The data were analyzed using GraphPad Prism 7.0 software, and a nonlinear S-curve regression was used to fit the data to derive the dose-effect curve from which the IC50 values were calculated. […]

[2] = target: Ba/F3 EGFR-D770_N771insSVD (Homo sapiens, UniProt P00533, DUP768-770, cells depend on it); assay: Anti-proliferation against Ba/F3 exon 20 insertion mutant cells (SVD); type: cell-based, mouse; conditions: CTG, 72 hours, read-out: Mutant cells IC50 (anti-proliferation)
Excerpt: as §1
Cells in logarithmic growth phase were harvested and cell counts were performed using a […]. Cell viability was detected by the Taipan Blue rejection assay. The cell concentration was adjusted; the cell suspension was added to a 96-well plate separately. Cells in 96-well plates were incubated overnight at 37° C., 5% CO2, and 95% humidity. To prepare the drug solution, 10 μL of drug solution was added to each well of the 96-well plate inoculated with cells, and three replicate wells were set up for each drug concentration. The cells in the 96-well plates added with drugs were placed at 37° C., 5% CO2, 95% humidity and continued to incubate for 72 hours, after which CTG analysis was performed and the cells were vibrated on an orbital shaker to lyse the cells. The cell plate was placed at room temperature to stabilize the cold light signal, and the cold light values were read. The data were analyzed using GraphPad Prism 7.0 software, and a nonlinear S-curve regression was used to fit the data to derive the dose-effect curve from which the IC50 values were calculated.
The IC50 of anti-proliferation activity against Ba/F3 Exon20 insertion mutant cells of the compounds of the present disclosure is shown in Table 5.
Ba/F3 exon 20 insertion mutant cells are cell lines with SVD, NPH, ASV, and YVMA insertion mutations artificially constructed using mouse B cells, and it can be seen from Table 5 that the compounds of the present disclosure have better cellular anti-proliferation activity against the […] exon 20 insertion mutations such as SVD, NPH, ASV, and YVMA, and also show better anti-proliferation activity against common exon 20 insertion mutations such as SVD mutation.

[3] = Compound stability test in plasma (mouse); type: in vitro ADME
Description: In this study, mouse, SD rat, Beagle, cynomolgus monkey and human plasma were used as materials to investigate the stability of the tested compounds in the plasma of the above five species. Propantheline, Enalapril, Bisacodyl and Procaine were used as control compounds.
The experimental conditions for the test compounds were as follows: • test concentration: 2 μM (DMSO ≤0.5%); • incubation times: 0, 10, 30, 60 and 120 minutes; • frozen plasma (from multiple species) was used in the test system; • incubation conditions: 37° C.
The mixed frozen plasma was thawed in a 37° C. water bath prior to the experiment. Plasma was centrifuged at 4000 rpm for 5 minutes and cleared if there was a clot. The pH will be adjusted to 7.4±0.1 if required.
The intermediate solution of 1 mM compound and positive control was prepared by diluting 10 mM stock solution with 90 μL of dimethyl sulfoxide. 100 μM solution was prepared by diluting 20 μL of intermediate solution (1 mM) with 180 μL of 45% methanol/water.
2 μL of 100 μM solution was added to 98 μL of blank plasma to achieve a final concentration of 2 μM (in duplicate) of the sample, and the sample was incubated in a 37° C. water bath. At each time point (0, 10, 30, 60 and 120 min), 400 μL of termination solution (200 ng/mL toluenesulfonylurea and 200 ng/mL labetalol, 50% ACN/MeOH) was added to precipitate the proteins and mixed thoroughly. […]

Chain of Ba/F3 EGFR-D770_N771insSVD (P00533 with tags, fused parts or gaps DUP768-770): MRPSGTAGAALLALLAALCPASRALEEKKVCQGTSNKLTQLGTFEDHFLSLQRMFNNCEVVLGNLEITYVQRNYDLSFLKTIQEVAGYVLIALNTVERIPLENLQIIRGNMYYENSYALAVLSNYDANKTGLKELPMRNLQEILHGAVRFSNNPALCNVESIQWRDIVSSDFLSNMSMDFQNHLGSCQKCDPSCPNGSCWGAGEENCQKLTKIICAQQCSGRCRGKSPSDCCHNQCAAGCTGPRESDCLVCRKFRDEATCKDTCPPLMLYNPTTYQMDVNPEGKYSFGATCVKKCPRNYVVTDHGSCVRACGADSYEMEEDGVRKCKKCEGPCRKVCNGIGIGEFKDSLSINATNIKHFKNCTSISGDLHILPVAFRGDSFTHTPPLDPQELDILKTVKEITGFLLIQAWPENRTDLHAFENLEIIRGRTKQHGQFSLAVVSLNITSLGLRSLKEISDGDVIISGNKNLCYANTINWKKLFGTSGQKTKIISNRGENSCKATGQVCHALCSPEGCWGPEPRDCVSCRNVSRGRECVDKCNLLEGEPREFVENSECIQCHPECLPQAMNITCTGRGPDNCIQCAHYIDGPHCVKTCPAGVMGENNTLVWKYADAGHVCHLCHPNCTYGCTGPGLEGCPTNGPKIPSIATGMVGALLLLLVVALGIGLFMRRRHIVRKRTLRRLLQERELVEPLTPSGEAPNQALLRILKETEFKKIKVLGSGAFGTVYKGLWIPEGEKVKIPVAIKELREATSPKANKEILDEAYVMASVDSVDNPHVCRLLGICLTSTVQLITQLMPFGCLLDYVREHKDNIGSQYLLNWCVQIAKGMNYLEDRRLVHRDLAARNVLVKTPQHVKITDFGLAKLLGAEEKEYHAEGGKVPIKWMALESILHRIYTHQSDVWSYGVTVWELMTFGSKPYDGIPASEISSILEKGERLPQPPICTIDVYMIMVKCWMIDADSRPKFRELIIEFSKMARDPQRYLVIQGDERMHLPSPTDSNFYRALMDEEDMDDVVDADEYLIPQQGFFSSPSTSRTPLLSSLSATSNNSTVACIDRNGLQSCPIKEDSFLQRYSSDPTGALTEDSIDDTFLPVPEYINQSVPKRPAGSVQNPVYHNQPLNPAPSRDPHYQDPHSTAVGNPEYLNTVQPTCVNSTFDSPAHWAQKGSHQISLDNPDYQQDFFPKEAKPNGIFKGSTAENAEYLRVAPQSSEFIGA
Chain of Ba/F3 EGFR-V769_D770insASV (P00533 with tags, fused parts or gaps DUP767-769): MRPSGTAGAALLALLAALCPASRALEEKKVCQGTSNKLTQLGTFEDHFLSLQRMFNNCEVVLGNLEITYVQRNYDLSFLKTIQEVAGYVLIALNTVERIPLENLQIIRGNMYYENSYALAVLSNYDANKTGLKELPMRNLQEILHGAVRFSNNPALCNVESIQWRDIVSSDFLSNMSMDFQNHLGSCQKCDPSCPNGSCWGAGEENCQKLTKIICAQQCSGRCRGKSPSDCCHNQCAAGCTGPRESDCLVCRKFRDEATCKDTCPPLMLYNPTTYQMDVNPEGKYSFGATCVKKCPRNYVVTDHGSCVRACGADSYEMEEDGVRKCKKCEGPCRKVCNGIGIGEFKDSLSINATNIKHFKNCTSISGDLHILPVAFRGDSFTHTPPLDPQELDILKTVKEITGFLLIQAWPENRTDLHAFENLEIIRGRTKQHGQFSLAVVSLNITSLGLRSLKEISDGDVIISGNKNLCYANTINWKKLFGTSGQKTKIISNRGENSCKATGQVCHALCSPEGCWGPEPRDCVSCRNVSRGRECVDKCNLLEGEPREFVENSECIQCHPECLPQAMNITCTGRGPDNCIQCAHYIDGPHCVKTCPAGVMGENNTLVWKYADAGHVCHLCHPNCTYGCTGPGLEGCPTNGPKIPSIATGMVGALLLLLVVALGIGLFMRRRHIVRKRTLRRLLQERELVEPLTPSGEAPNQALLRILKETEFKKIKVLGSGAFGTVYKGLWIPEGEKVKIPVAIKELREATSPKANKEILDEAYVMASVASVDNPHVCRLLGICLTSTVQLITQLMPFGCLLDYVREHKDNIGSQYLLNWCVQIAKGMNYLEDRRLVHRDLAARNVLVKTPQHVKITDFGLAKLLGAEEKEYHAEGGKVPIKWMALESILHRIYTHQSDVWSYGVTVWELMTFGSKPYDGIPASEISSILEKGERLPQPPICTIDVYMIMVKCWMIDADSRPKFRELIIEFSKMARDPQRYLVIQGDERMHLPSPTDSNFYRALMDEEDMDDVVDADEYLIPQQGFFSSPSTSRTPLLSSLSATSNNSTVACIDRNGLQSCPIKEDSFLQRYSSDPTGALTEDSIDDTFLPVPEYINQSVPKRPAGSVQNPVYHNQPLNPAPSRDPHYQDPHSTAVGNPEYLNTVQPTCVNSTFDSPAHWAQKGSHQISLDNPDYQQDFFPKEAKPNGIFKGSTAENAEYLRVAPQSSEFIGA

## C=CC(=O)Nc1cc(Nc2ncc(C(=O)OC(C)C)c(-c3cn(OC)c4ccccc34)n2)c(OC)cc1N(C)CCN(C)C.CS(=O)(=O)O [Compound 1]
[1]
  GI50: 7 nM
[2]
  GI50: 27 nM and 24 nM
[3]; 120 minutes, 2 μM, 37° C.
  In vitro plasma stability (Residual percentage): 45%
[3]; pH 7.4, 37° C., read-out: In vitro plasma half-life T1/2
  half-life at 2 µM: 1.81 h
